The values that follow come from PMC5518657, “Deacetylation of mycothiol-derived ‘waste product’ triggers the last biosynthetic steps of lincosamide antibiotics” (Chemical Science, 2015).

The assay addresses T1, LmbF (Streptomyces lincolnensis, UniProt A9Y8R7).
T1 construct: recombinant protein; details only in ESI
Put plainly: in vitro turnover of […] with and without PLP, LC-MS. It is filed as biochemical. The conditions noted are these: no turnover without PLP; covalent binding to the substrate amino group is proposed.

T1 sequence (A9Y8R7 entry or part of it): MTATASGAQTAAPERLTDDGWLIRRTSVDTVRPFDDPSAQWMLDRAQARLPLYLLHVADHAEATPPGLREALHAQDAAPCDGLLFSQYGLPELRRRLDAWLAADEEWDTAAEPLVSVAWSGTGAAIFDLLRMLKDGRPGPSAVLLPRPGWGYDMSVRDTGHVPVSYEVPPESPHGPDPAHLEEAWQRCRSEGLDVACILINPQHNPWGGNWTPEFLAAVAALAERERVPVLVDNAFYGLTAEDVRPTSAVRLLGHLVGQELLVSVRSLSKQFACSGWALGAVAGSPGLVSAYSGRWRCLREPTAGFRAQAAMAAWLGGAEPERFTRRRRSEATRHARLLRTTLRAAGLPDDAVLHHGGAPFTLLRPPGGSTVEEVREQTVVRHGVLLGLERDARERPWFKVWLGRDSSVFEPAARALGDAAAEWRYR

Regarding `Cc1ncc(COP(=O)(O)O)c(C=O)c1O` [pyridoxal-5′-phosphate], the “in vitro turnover of 479 with and without PLP, LC-MS” value is given as “LmbF failed to carry out this reaction in the absence of PLP”.
